The target of the assay is T1, BTK (Homo sapiens, UniProt Q06187).
T1 construct: Whole blood was collected with written consent from healthy volunteers by venipuncture into sodium heparin vials; endogenous in cells; host or cells: B cells in heparinised whole blood of healthy human volunteers
T1 sequence (Q06187 whole entry): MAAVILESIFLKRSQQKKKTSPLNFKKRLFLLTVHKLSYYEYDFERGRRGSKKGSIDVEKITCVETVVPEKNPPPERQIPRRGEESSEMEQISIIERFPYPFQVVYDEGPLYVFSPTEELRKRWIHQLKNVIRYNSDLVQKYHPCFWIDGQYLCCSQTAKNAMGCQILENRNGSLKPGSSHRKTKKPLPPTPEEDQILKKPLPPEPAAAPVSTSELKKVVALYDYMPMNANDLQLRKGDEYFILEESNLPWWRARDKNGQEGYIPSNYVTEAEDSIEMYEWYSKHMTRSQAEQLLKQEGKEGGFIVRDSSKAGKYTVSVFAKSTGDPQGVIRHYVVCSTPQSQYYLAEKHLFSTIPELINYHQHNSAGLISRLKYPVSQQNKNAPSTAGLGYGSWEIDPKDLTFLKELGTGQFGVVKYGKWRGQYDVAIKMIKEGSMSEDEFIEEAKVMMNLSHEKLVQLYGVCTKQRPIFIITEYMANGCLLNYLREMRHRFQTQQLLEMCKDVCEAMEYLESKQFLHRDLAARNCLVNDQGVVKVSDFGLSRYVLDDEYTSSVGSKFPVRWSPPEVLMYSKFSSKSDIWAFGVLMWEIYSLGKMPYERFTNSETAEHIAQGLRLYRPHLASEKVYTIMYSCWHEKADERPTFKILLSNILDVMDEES
The assay can be described thus: Inhibition of BTK activity in blood (anti-IgM/IL-4 B cell activation, CD69).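 Further: heparinized blood from healthy donors, read by flow cytometry, with inhibition derived from the percentage of CD69-positive cells within the CD19-positive lymphocyte gate.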 It is filed as cell-based. The settings on record: human whole blood, anti-IgM/IL-4, CD69 on CD19+ cells, 20 hours.
Broadly, the IC50 is the concentration at which inhibition is half-maximal. A higher IC50 goes with weaker potency. In turn, `C/C=C/C(=O)N1CC(Oc2c(N)ncnc2-c2cc(F)cc(NC(=O)c3ccc(C4CC4)cc3F)c2C)C1` [Example 2, (E)-N-(3-(6-Amino-5-((1-(but-2-enoyl)azetidin-3-yl)oxy)pyrimidin-4-yl)-5-fluoro-2-methylphenyl)-4-cyclopropyl-2-fluorobenzamide] came in with a half-inhibitory concentration (IC50) of 1110 nM.

For the compound `C#CC(=O)N1CC(Oc2c(N)ncnc2-c2cc(F)cc(NC(=O)c3ccc(C4CC4)cc3F)c2C)C1` [Example 3, N-(3-(6-Amino-5-((1-propioloylazetidin-3-yl)oxy)pyrimidin-4-yl)-5-fluoro-2-methylphenyl)-4-cyclopropyl-2-fluorobenzamide], the IC50 came out at 124 nM.

`CC#CC(=O)N1CC(Oc2c(N)ncnc2-c2cc(F)cc(NC(=O)c3ccc(C4CC4)cc3F)c2C)C1` [Example 4, N-(3-(6-Amino-5-((1-(but-2-ynoyl)azetidin-3-yl)oxy)pyrimidin-4-yl)-5-fluoro-2-methylphenyl)-4-cyclopropyl-2-fluorobenzamide] displayed an IC50 of 376 nM.

`COC/C=C/C(=O)N(C)CCOc1c(N)ncnc1-c1cc(F)cc(NC(=O)c2ccc(C3CC3)cc2F)c1C` [Example 9, (E)-N-(3-(6-Amino-5-(2-(4-methoxy-N-methylbut-2-enamido)ethoxy)pyrimidin-4-yl)-5-fluoro-2-methylphenyl)-4-cyclopropyl-2-fluorobenzamide] came in with a half-maximal inhibitory concentration (IC50) of 240 nM. This IC50 lies about 1.6-fold lower than the previous one.

For the compound `Cc1c(NC(=O)c2ccc(C3CC3)cc2F)cc(F)cc1-c1ncnc(N)c1OCCN(C)C(=O)C1CO1` (stereo not shown) [Example 11, N-(2-((4-Amino-6-(3-(4-cyclopropyl-2-fluorobenzamido)-5-fluoro-2-methylphenyl)pyrimidin-5-yl)oxy)ethyl)-N-methyloxirane-2-carboxamide], half-maximal inhibition (IC50) required 323 nM. The IC50 values of the last two compounds are within 1.5-fold of each other.

In turn, `C=CC(=O)N(C)CCOc1c(N)ncnc1-c1cccc(-n2ccc3cc(C4CC4)cc(F)c3c2=O)c1` [Example 12, N-(2-((4-Amino-6-(3-(6-cyclopropyl-8-fluoro-1-oxoisoquinolin-2(1H)-yl)phenyl)pyrimidin-5-yl)oxy)ethyl)-N-methylacrylamide] gave an IC50 of 459 nM.

As for `C=CC(=O)N(CCF)CCOc1c(N)ncnc1-c1cc(F)cc(NC(=O)c2ccc(C3CC3)cc2F)c1C` [Example 15, N-(3-(6-Amino-5-(2-(N-(2-fluoroethyl)acrylamido)ethoxy)pyrimidin-4-yl)-5-fluoro-2-methylphenyl)-4-cyclopropyl-2-fluorobenzamide], the 50% inhibitory concentration (IC50) worked out at 29 nM.

In the case of `C=CC(=O)NC1(COc2c(N)ncnc2-c2cc(F)cc(NC(=O)c3ccc(C4CC4)cc3F)c2C)CC1` [Example 16, N-(3-(5-((1-Acrylamidocyclopropyl)methoxy)-6-aminopyrimidin-4-yl)-5-fluoro-2-methylphenyl)-4-cyclopropyl-2-fluorobenzamide], the IC50 is 558 nM.

Take `C=CC(=O)N[C@@H](C)COc1c(N)ncnc1-c1cc(F)cc(NC(=O)c2ccc(C3CC3)cc2F)c1C` [Example 17, (S)—N-(3-(5-(2-Acrylamidopropoxy)-6-aminopyrimidin-4-yl)-5-fluoro-2-methylphenyl)-4-cyclopropyl-2-fluorobenzamide]: half-maximal inhibition (IC50) required 246 nM.

Compound `CC#CC(=O)N[C@@H](C)COc1c(N)ncnc1-c1cc(F)cc(NC(=O)c2ccc(C3CC3)cc2F)c1C` [Example 18] displayed an IC50 of 419 nM.

Regarding `C=CC(=O)N(C)[C@@H](C)COc1c(N)ncnc1-c1cc(F)cc(NC(=O)c2ccc(C3CC3)cc2F)c1C` [Example 19, (S)—N-(3-(6-Amino-5-(2-(N-methylacrylamido)propoxy)pyrimidin-4-yl)-5-fluoro-2-methylphenyl)-4-cyclopropyl-2-fluorobenzamide], the IC50 amounted to 136 nM.

`CC#CC(=O)N(C)[C@@H](C)COc1c(N)ncnc1-c1cc(F)cc(NC(=O)c2ccc(C3CC3)cc2F)c1C` [Example 20] displayed an IC50 of 330 nM. This IC50 is about 2.4-fold higher than that of the compound before.

`CC#CC(=O)N1CCC[C@H]1COc1c(N)ncnc1-c1cc(F)cc(NC(=O)c2ccc(C3CC3)cc2F)c1C` [Example 23] registered a 50% inhibitory concentration (IC50) of 57 nM. Against the preceding compound, the IC50 is about 5.8-fold lower.

Compound `C=CC(=O)N1CCC[C@H]1COc1c(N)ncnc1-c1cc(F)cc(N2CCc3cc(C4CC4)ccc3C2=O)c1CO` [Example 24, (S)-2-(3-(5-((1-Acryloylpyrrolidin-2-yl)methoxy)-6-aminopyrimidin-4-yl)-5-fluoro-2-(hydroxymethyl)phenyl)-6-cyclopropyl-3,4-dihydroisoquinolin-1(2H)-one] gave a half-inhibitory concentration (IC50) of 32 nM.

`C=CC(=O)N(C)CCOc1c(N)ncnc1-c1cc(F)cc(N2CCc3cc(C4CC4)ccc3C2=O)c1CO` [Example 25, N-(2-((4-Amino-6-(3-(6-cyclopropyl-1-oxo-3,4-dihydroisoquinolin-2(1H)-yl)-5-fluoro-2-(hydroxymethyl)phenyl)pyrimidin-5-yl)oxy)ethyl)-N-methylacrylamide] displayed a half-maximal inhibitory concentration (IC50) of 65 nM.

The compound `C=CC(=O)N1C[C@H](OC)C[C@H]1COc1c(N)ncnc1-c1cc(F)cc(NC(=O)c2ccc(C3CC3)cc2F)c1C` [Example 26, N-(3-(5-(((2S,4R)-1-Acryloyl-4-methoxypyrrolidin-2-yl)methoxy)-6-aminopyrimidin-4-yl)-5-fluoro-2-methylphenyl)-4-cyclopropyl-2-fluorobenzamide] gave an IC50 of 51 nM. The IC50 values of the last two compounds are within 1.5-fold of each other.

For the compound `CC#CC(=O)N1C[C@H](OC)C[C@H]1COc1c(N)ncnc1-c1cc(F)cc(NC(=O)c2ccc(C3CC3)cc2F)c1C` [Example 27, N-(3-(6-Amino-5-(((2S,4R)-1-(but-2-ynoyl)-4-methoxypyrrolidin-2-yl)methoxy)pyrimidin-4-yl)-5-fluoro-2-methylphenyl)-4-cyclopropyl-2-fluorobenzamide], 76 nM corresponded to half-maximal inhibition (IC50).

As to `C=CC(=O)N1C[C@H](OC)C[C@H]1COc1c(N)ncnc1-c1cc(F)cc(N2CCc3cc(C4CC4)ccc3C2=O)c1CO` [Example 28, 2-(3-(5-(((2S,4R)-1-Acryloyl-4-methoxypyrrolidin-2-yl)methoxy)-6-aminopyrimidin-4-yl)-5-fluoro-2-(hydroxymethyl)phenyl)-6-cyclopropyl-3,4-dihydroisoquinolin-1(2H)-one], the IC50 turned out to be 33 nM.

`C=CC(=O)N1C[C@@H](OC)C[C@H]1COc1c(N)ncnc1-c1cc(F)cc(NC(=O)c2ccc(C3CC3)cc2F)c1C` [Example 29, N-(3-(5-(((2S,4S)-1-Acryloyl-4-methoxypyrrolidin-2-yl)methoxy)-6-aminopyrimidin-4-yl)-5-fluoro-2-methylphenyl)-4-cyclopropyl-2-fluorobenzamide]: half-maximal inhibition (IC50) required 134 nM.

For the compound `CC#CC(=O)N1C[C@@H](OC)C[C@H]1COc1c(N)ncnc1-c1cc(F)cc(NC(=O)c2ccc(C3CC3)cc2F)c1C` [Example 30, N-(3-(6-Amino-5-(((2S,4S)-1-(but-2-ynoyl)-4-methoxypyrrolidin-2-yl)methoxy)pyrimidin-4-yl)-5-fluoro-2-methylphenyl)-4-cyclopropyl-2-fluorobenzamide], the IC50 worked out at 222 nM.

For `C=CC(=O)N1C[C@H](F)C[C@H]1COc1c(N)ncnc1-c1cc(F)cc(NC(=O)c2ccc(C3CC3)cc2F)c1C` [Example 31, N-(3-(5-(((2S,4R)-1-Acryloyl-4-fluoropyrrolidin-2-yl)methoxy)-6-aminopyrimidin-4-yl)-5-fluoro-2-methylphenyl)-4-cyclopropyl-2-fluorobenzamide], the 50% inhibitory concentration (IC50) came out at 25 nM.

Consider `CC#CC(=O)N1C[C@H](F)C[C@H]1COc1c(N)ncnc1-c1cc(F)cc(NC(=O)c2ccc(C3CC3)cc2F)c1C` [Example 32, N-(3-(6-Amino-5-(((2S,4R)-1-(but-2-ynoyl)-4-fluoropyrrolidin-2-yl)methoxy)pyrimidin-4-yl)-5-fluoro-2-methylphenyl)-4-cyclopropyl-2-fluorobenzamide], for which the midpoint of inhibition, the IC50, lay at 55 nM.

The compound `C#CC(=O)N1CC[C@H]1COc1c(N)ncnc1-c1cc(F)cc(NC(=O)c2ccc(C3CC3)cc2F)c1C` [Example 34] gave an IC50 of 208 nM. Compared with the last compound, the IC50 is about 3.8-fold higher.

In turn, `C=CC(=O)N1CC[C@H]1COc1c(N)ncnc1-c1cc(F)cc(N2CCc3cc(C4CC4)ccc3C2=O)c1CO` [Example 35, (S)-2-(3-(5-((1-Acryloylazetidin-2-yl)methoxy)-6-aminopyrimidin-4-yl)-5-fluoro-2-(hydroxymethyl)phenyl)-6-cyclopropyl-3,4-dihydroisoquinolin-1(2H)-one] returned an IC50 of 72 nM.

For the compound `C=CC(=O)N1CCC[C@@H](COc2c(N)ncnc2-c2cc(F)cc(NC(=O)c3ccc(C4CC4)cc3F)c2C)C1` [Example 37, (R)—N-(3-(5-((1-Acryloylpiperidin-3-yl)methoxy)-6-aminopyrimidin-4-yl)-5-fluoro-2-methylphenyl)-4-cyclopropyl-2-fluorobenzamide], the IC50 amounted to 968 nM.

The compound `C=CC(=O)N1CC[C@H](OC)[C@H]1COc1c(N)ncnc1-c1cc(F)cc(NC(=O)c2ccc(C3CC3)cc2F)c1C` [Example 38, N-(3-(5-(((2R,3S)-1-Acryloyl-3-methoxypyrrolidin-2-yl)methoxy)-6-aminopyrimidin-4-yl)-5-fluoro-2-methylphenyl)-4-cyclopropyl-2-fluorobenzamide] had a half-inhibitory concentration (IC50) of 70 nM.

`C=CC(=O)N1C[C@H](C#N)C[C@H]1COc1c(N)ncnc1-c1cc(F)cc(NC(=O)c2ccc(C3CC3)cc2F)c1C` [Example 39, N-(3-(5-(((2S,4R)-1-Acryloyl-4-cyanopyrrolidin-2-yl)methoxy)-6-aminopyrimidin-4-yl)-5-fluoro-2-methylphenyl)-4-cyclopropyl-2-fluorobenzamide] yielded an IC50 of 176 nM. This IC50 lies about 2.5-fold higher than the previous one.

On to `C=CC(=O)N1C[C@@H](C#N)C[C@H]1COc1c(N)ncnc1-c1cc(F)cc(NC(=O)c2ccc(C3CC3)cc2F)c1C` [Example 40, N-(3-(5-(((2S,4S)-1-Acryloyl-4-cyanopyrrolidin-2-yl)methoxy)-6-aminopyrimidin-4-yl)-5-fluoro-2-methylphenyl)-4-cyclopropyl-2-fluorobenzamide], for which half-maximal inhibition (IC50) was put at 80 nM.

These data come from US20180140602A1, “COMBINATION OF CHIMERIC ANTIGEN RECEPTOR THERAPY AND AMINO PYRIMIDINE DERIVATIVES” (Novartis AG, priority 2015, published 2018).
